“Also recorded” adds a separate entry of the source. Where two headings read alike, the source gives them in different places.
Columns and labels:
red blood cells = assay: Hemolysis assay; assay type: cell-based; conditions: 250, 500, 1000 μg/mL; 2% rabbit red blood cells; 37° C., 1 hour
Experimental: Hemolytic activity was determined with 2% fresh red blood cells from a healthy rabbit. Blood cells were obtained and washed with PBS buffer four to five times and centrifuged at 1500 rpm for 10 mins until the upper phase became clear. Compounds were diluted with PBS to final concentrations of 1000, 500, 250 μg/mL, added to the same volume of 2% red blood cells and incubated at 37° C. for 1 hour. Samples were centrifuged at 10,000 rpm for 5 mins, and supernatants were added into 96-well plates and measured at 570 nm with a Thermo Scientific Multiskan FC multiplate photometer (Thermo Scientific™, USA). An aliquot of 10% Triton X-100 was used as the positive control, and 1% DMSO dissolved in PBS was used as the negative control.

Tau-R3 = target: T1, Tau-R3 (Homo sapiens, UniProt P10636); assay: Thioflavin T (ThT) fluorescent tau-R3 aggregation assay; assay type: biochemical; conditions: 20 μM Tau-R3, 10 μM heparin, read-out: IC50 of Tau-R3 aggregation inhibition (converted)
T1 construct: Tau-R3 protein was synthesized and purchased from ChinaPeptides Co., Ltd; purchased ChinaPeptides Co., Ltd; host or cells: chemical synthesis
T1 sequence (P10636 623-653 limits assumed): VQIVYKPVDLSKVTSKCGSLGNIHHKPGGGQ
Experimental: Tau-R3 protein was synthesized and purchased from ChinaPeptides Co., Ltd. ThT (ab120751, 1 mM) solution was freshly prepared in 50 mM Tris-HCl buffer (pH 7.4) and passed through a 0.45 μm pore size filter to remove insoluble particles before use. Tau-R3 (20 μM) was incubated with 20 μM ThT and 10 μM heparin in the presence or absence of cA, cB and cC. Samples in 200 μL were added to 96-well plates and incubated at 37° C. for 24-48 hours. ThT fluorescence intensity was recorded using a microplate reader with 440/480 nm excitation/emission filters at different time points. Non-linear regression analysis was performed to fit the boltzmann sigmoidal.
(§1) In the C9orf72 ALS/FTD, there is a strong genetic association between the microtubule-binding protein, tau and the G4C2 HRE. […] The co-expression of Tau and G4C2 repeats produces a synergistic deterioration of the neurodegeneration phenotype of ALS/FTD^46. Considering the tight correlation of Tau aggregation with the ALS/FTD pathogenesis, we tested our compounds in a non-cell-based Tau-R3 aggregation inhibition assay. […] Moreover, we conducted high magnification TEM imaging to characterize the morphological changes of Tau-R3 fibrils with cA, cB and cC treatments. […] Furthermore, the misfolding of tau protein into filaments in neurons of the central nervous system can be found in various neurodegenerative diseases, such as Alzheimer's disease et al. Therefore, the inhibition on tau aggregation represented a potential of cA and its derivatives in targeting multiple other neurodegenerative diseases more than ALS.

[1] = tested on: differentiated HT22 cells; assay: cells; assay type: cell-based; conditions: for EC50: Mus musculus, HT-22, differentiated HT22 cells pre-treated with 5 mM L-glutamate, cell viability; for neuroprotective activity compared with cA: comparison of analogs
Experimental: (§2) Cytotoxicity of compounds was tested by MTT assay. Cells were grown in DMEM (Gibco) with 10% FBS and 1% penicillin-streptomycin at 37° C. with 5% CO2. In total, 5×10^3 cells were seeded in each well of 96-well plates and cultured for 24 hours. Then cells were treated with different concentrations of compounds dissolved in DMSO for another 24 hours. After incubating with 20 μl of MTT (5 mg/mL) for each well at 37° C. for another four hours, 100 μl of DMSO was added to dissolve formazan. Absorbance was measured using a Multiskan™ FC microplate photometer at 570 nm. IC50 data were analyzed with GraphPad Prism software.
Cultured HT22 cells were differentiated by applying 10 μM retinoic acid (Sigma-Aldrich, R2625-50MG) and 500 μM cAMP (Sigma-Aldrich, A6885) in DEME medium supplied with 0.5% FBS (differentiation medium) and incubated 48 hours before adding other treatments. 5 mM L-glutamate acid was applied to the original differentiation medium for further 24-hours incubation. Cell viability was measured by MTT assay described above.
In the C9orf72 associated ALS/FTD, the G4C2 HRE make motor neurons more vulnerable to aberrant neuron excitation^43. Meanwhile, the hyperactivation of glutamate receptors drives a toxic level of neuronal activity, promoting the non-ATG (RAN) translation of G4C2 repeat-associated DPR proteins^44, leading to further toxicity of motor neurons. Thus, we would like to test our compounds in a glutamate (E)-induced excitotoxicity cell model.

[2] = tested on: Neuro2a cells transfected with DNA (G4C2)29; assay: Cell viability of Neuro2a cells transfected with DNA (G4C2)29 (C9orf72 ALS/FTD cell model); assay type: cell-based; conditions: for effect on cell viability of (G4C2)29-transfected Neuro2a cells: 1 μg/ml; for viability at 1 µg/mL: Mus musculus, N2a, read-out: cell viability in (G4C2)29-cells
Experimental: as §2
DNA constructs were transfected to neuronal Neuro2a cell lines using Lipofectamine 2000 (Thermo Fisher Scientific, 11668019). 4 to 6 hours after transfection, fresh culture medium was used to replace the transfection medium, and cells were incubated for another 48 hours to allow recovery and construct expression.

Tau-R3 fibrils = target: T2, Tau-R3 fibrils (Homo sapiens, UniProt P10636); assay: TEM imaging of Tau-R3 fibrils; assay type: biochemical; conditions: cA 10 μg/ml, cB 5 μg/ml, cC 10 μg/ml
T2 construct: Tau-R3 protein was synthesized and purchased from ChinaPeptides Co., Ltd; purchased ChinaPeptides Co., Ltd; host or cells: chemical synthesis
T2 sequence (P10636 623-653 limits assumed): as above
Experimental: Samples from ThT fluorescence experiments were directly applied to a 300-mesh carbon coating copper grid. 20 μL of aggregate samples were dispensed onto a sheet of parafilm, and a copper grid was placed onto the sample drop for 5 mins. The copper grid with samples was moved to water drop for 5 mins-washing, and then stained with 2% uranyl acetate for 5 mins. Images were captured using a transmission electron microscope (Thermo Scientific Talos L120C) at a magnification of 13500× and an acceleration voltage of 120 kV.
as §1

Compound	hemolytic activity (red blood cells)	IC50 (Tau-R3)	EC50 [1]	effect on cell viability of (G4C2)29-transfected Neuro2a cells [2]	viability at 1 µg/mL ([2]; 1 μg/mL, model group 20%)	morphological change of Tau-R3 fibrils (TEM) (Tau-R3 fibrils)	cytotoxicity (structure-activity summary) [1]	neuroprotective activity compared with cA [1]	viability at 1 µg/mL [2]
CC(=O)Cc1cc2c(c(O)c1C(=O)O)-c1c(c(O)c3oc4c(O[C@@H]5OC(C(=O)O)=C[C@H](O)[C@H]5O)cccc4c(=O)c3c1O)CC2 [cA, chrexanthomycin A]	no hemolytic activity even at the concentration of 1000 μg/ml; also recorded: no hemolytic activity with a pretty high concentration of 1 mg/ml	~518 nM	310 nM	partially increased the cell viability	30%	broken into shorter and thinner fragments	–	–	–
COc1c2c(c(O)c3c(=O)c4cccc(O[C@@H]5OC(C(=O)O)=C[C@H](O)[C@H]5O)c4oc13)-c1c(cc(CC(C)=O)c(C(=O)O)c1O)CC2 [cB, chrexanthomycin B]	significant hemolytic activity starting at 500 μg/ml; also recorded: significant hemolytic activity starting at 0.5 mg/ml	2050 nM	11100 nM	made it worse; also recorded: even worse than the model group	–	broken into shorter and thinner fragments	potent cytotoxicity	worse than cA	–
CC(=O)Cc1cc2c(c(O)c1C(=O)O)-c1c(c(O)c3oc4c(O[C@@H]5O[C@H](C(=O)O)[C@@H](O)[C@H](O)[C@H]5O)cccc4c(=O)c3c1O)CC2 [cC, chrexanthomycin C]	no hemolytic activity even at the concentration of 1000 μg/ml; also recorded: no hemolytic activity with a pretty high concentration of 1 mg/ml	5760 nM	–	partially increased the cell viability	–	broken into shorter and thinner fragments	–	better neuroprotective activity than cA	40%
